Laboratory results published in patent US10246515B2, “Methods of treating hedgehog-related diseases with an anti-LGR5 antibody” (Genentech, Inc., priority 2013, dated 2019).

What was measured:
basal cell carcinoma = test: Basal cell carcinoma in K14-CreER; Ptch1fl/fl; p53fl/fl mice treated with GDC-0449; assay type: in vivo
Method: Harvested skin from treated animals was processed for Hematoxylin and Eosin (H&E) staining using established protocols. Alternatively, backskin from treated animals was fixed over night in 4% paraformaldehyde/PBS solution, washed, incubated in 30% sucrose/PBS solution overnight, and embedded in frozen OCT. Sections were then cut at 8 um from the frozen blocks and stained for the apoptosis marker cleaved caspase 3 (1:1000), GFP (1:1000), or Keratin 5 (1:1000). Sections were counterstained with DAPI.

[1] = system: Superficial Basal Cell Carcinoma (BCC); test: DT cell ablation in Superficial Basal Cell Carcinoma (BCC), K14CreER/+; p53loxP/loxP; PtchloxP/loxP; LGR5DTReGFP/+ mice; H&E and immunofluorescent staining; assay type: in vivo; details: 75 mg/kg GDC-0449 po BID for 38 days with Diphtheria Toxin 50 ug/kg every other day for the final 8 days, Lgr5DTR.EGFP mice (FIG. 4 A-B)
Method: K14^CreER/+; p53^loxP/loxP; Ptch^loxP/loxP; LGR5^DTReGFP/+ mice were generated by breeding p53^loxP/loxPPtch^loxP/loxP; LGR5^DTReGFP/+ mice with p53^loxP/loxP; Ptch^loxP/+; K14^CreER/−. Animals showing telltale signs of Superficial BCC disease such as loss of fur, scruffy coat, thickening of the ears or tail skin were put on study. Animals were typically placed on study at 7 weeks of age. K14^CreER/+; p53^loxP/loxP; Ptch^loxP/loxP; LGR5^DTReGFP/+ mice were treated with the regimes as follows. To test the effects of DT treatments on residual superficial BCC, mice were treated Vismodegib (GDC-0449) po bid at 75 mg/kg for 38 days with concomitant with Diphtheria Toxin (DT) at 50 ug/kg every other day for the final 8 days starting at […]. Control mice were treated with Vismodegib (GDC-0449) po bid at 75 mg/kg for 38 days concomitant with 200 uL IP saline for the final 8 days of treatment. In addition, animals showing signs of disease (listed above) were treated with saline or DT alone at 50 ug/kg every other day for 5 days to test the effect of single DT treatments.
Harvested skin from treated animals was processed for Hematoxylin and Eosin (H&E) staining using established protocols. Alternatively, backskin from treated animals was fixed over night in 4% paraformaldehyde/PBS solution, washed, incubated in 30% sucrose/PBS solution overnight, and embedded in frozen OCT. […]

CS(=O)(=O)c1ccc(C(=O)Nc2ccc(Cl)c(-c3ccccn3)c2)c(Cl)c1 [GDC-0449, 2-chloro-N-[4-chloro-3-(pyridin-2-yl)phenyl]-4-(methylsulfonyl)benzamide]
tumor regression (basal cell carcinoma; K14-CreER, Ptch1fl/fl, p53fl/fl mice, compared to untreated control mice (FIG. 2)): extensive tumor regression
residual disease (basal cell carcinoma; after 75 mg/kg GDC-0449 po BID for 56 days (FIG. 2 C-D)): still observed
tumor regression [1]: tumor regression
